According to patent publication US4999424A, “GAR transformylase inhibitor” (The Pennsylvania State University, priority 1988, dated 1991):

Key:
GAR TFase (avian) = GAR TFase (avian) (Gallus gallus, UniProt P21872); assay: Avian GAR TFase inhibition; format: biochemical; details: for Mode of inhibition: avian GAR TFase
Description: (§1) All assays were carried out by following the increase of 5,8-dideazafolate absorbence at 295 nm in buffered medium at 26° C. To initiate the reaction, enzyme (1 nM final concentration) was added to a mixture of saturating substrates and variable amounts of inhibitor. A characteristic family of curves was obtained, showing slow, tight-binding inhibition. See, Morrison, Trends Biochem. Sc., 7, 102 (1982) and Morrison, et al., Adv. Enzymology, Relat. Areas Mol. Biol., 57, 201-301 (1987).
The specificity of beta-TGDDF for GAR TFase from species other than E. coli was assayed in a general manner by measuring the activity of GAR TFase at a concentration of 1 nM from avian, HeLa, and L121? sources in the presence of 20 nM beta-TGDDF.
(§2) Table II illustrates the specificity of beta-TGDDF for GAR TFase in comparison with other reduced-folate utilizing enzymes. This test, was conducted using the same [I]/[E]ratios as stated previously.

E. coli GAR TFase [1] = target: T1, E. coli GAR TFase (Escherichia coli, UniProt P08179); assay: Fluorescence titration, dissociation constant for E. coli GAR TFase; format: binding; details: average from three wavelengths (396, 400, 405 nm); standard error about 50 pM; 11 nM inhibitor, excitation 275 nm; read-out: thermodynamic dissociation constant, KD
T1 construct: made in house; host or cells: E. coli TX393 with multicopy plasmid pJS85, or E. coli TX635 with lambda pL plasmid pJS119 or pJS167
T1 sequence (P08179 1-212): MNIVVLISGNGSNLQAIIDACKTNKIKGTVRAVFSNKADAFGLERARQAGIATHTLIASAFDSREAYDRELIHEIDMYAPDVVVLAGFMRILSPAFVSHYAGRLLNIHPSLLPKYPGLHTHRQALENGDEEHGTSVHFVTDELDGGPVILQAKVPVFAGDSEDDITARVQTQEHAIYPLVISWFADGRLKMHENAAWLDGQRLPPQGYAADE
Description: The thermodynamic dissociation constant, KD, for the E.β-TGDDF complex was measured by following the enhancement of the inhibitor's 395 nm fluorescence (excitation at 275 nm) upon binding to GAR TFase. A concentrated E. coli GAR TFase solution was added to an 11 nM solution of purified β-TGDDF; for each addition, the fluorescence at three different wavelengths (396, 400, and 405 nm) was measured. Fluorescence titration data was analyzed by the method of Taira and Benkovic, J. Med. Chem., 31, 129-137 (1988).
(§3) In analyzing the biological activity of the compounds of the present invention, GAR TFase from E. coli was used. This enzyme behaves like the mammalian and avian enzyme with respect to substrate specificity, yet is a simple and effective system having only one biological activity. That is, unlike the avian trifunctional GAR TFase, the E. coli species has a sole function. This follows from the genetic evidence of Smith and Daum, J. Biol. Chem., 262, 10565-10569 (1987) as w®11 as the work of Schrimsher et al., Biochemistry, 25, 4366-4371 (1986) who have shown that […] from E. coli is a monofunctional protein, whereas, in chicken it belongs to a trifunctional protein containing, the activates: GAR SYNthase, GAR TFase, and AIR SYNthase.
The E. coli GAR TFase binding constants for the compounds of the present invention and other folate analogs are shown in Table I below: […]

E. coli GAR TFase [2] = target: T1, E. coli GAR TFase; assay: E. coli GAR TFase inhibition/activity assay (5,8-dideazafolate absorbance at 295 nm); format: biochemical; details: E. coli GAR TFase, 26° C, 1 nM enzyme, saturating substrates
Description: as §1, §3
The E. coli GAR TFase binding constants for the compounds of the present invention and other folate analogs are shown in Table I below:
as §2

GAR TFase (avian), sequence (P21872 whole entry): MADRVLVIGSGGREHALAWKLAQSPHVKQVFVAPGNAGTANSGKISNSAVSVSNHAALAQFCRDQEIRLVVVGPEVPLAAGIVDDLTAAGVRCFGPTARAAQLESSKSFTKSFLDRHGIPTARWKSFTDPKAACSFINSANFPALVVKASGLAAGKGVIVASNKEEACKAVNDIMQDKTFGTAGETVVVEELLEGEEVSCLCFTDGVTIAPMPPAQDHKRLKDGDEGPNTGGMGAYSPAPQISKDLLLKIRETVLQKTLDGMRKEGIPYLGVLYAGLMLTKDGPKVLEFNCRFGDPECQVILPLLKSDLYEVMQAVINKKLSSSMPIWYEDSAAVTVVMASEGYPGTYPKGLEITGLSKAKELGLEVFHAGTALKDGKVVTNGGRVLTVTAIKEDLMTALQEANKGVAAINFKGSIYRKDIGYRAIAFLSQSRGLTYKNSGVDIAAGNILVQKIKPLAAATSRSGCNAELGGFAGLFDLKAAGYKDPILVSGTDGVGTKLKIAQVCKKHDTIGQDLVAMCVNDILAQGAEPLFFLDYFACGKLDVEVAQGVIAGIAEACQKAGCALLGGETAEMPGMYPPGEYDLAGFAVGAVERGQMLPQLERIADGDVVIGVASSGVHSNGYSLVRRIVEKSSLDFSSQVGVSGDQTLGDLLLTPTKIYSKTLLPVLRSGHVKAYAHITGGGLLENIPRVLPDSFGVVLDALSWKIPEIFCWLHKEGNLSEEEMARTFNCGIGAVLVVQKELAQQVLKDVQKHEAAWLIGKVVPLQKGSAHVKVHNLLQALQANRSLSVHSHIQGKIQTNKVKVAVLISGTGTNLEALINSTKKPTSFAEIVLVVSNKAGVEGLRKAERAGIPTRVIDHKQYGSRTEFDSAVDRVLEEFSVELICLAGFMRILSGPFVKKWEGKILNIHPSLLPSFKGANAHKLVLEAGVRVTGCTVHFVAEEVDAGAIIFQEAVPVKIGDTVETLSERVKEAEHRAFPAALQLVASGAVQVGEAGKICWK

## Nc1nc2ccc(CN(C(=O)CSCC(=O)N[C@@H]3O[C@H](COP(=O)(O)O)[C@@H](O)[C@H]3O)c3ccc(C(=O)N[C@@H](CCC(=O)O)C(=O)O)cc3)cc2c(=O)[nH]1 [beta-TGDDF, N^10-[5'-phosphoribosyl-1'-β-amino-carbonylmethyl-1-thioacetyl]-5,8-dideazafolate]
GAR TFase (avian); 20 nM beta-TGDDF, 1 nM enzyme
  Extent of inhibition: inhibited by roughly the same magnitude
GAR TFase (avian)
  Mode of inhibition: inhibition of a slow, tight binding nature
GAR TFase (avian); listed as Beta-TGDDF
  Mode of inhibition: slow, tight-binding inhibitor
E. coli GAR TFase [1]
  Kd: 0.25 nM
E. coli GAR TFase [2]
  Mode of inhibition: slow, tight-binding inhibitor
